Reference: ChEMBL document CHEMBL1275422, “Cerebrospinal fluid compartmental pharmacokinetics of amikacin in neonates” (Antimicrob Agents Chemother, 2008)

How the values were obtained:
[1] = Cmax in human neonate serum after 25 hrs by fluorescence polarization immunoassay; format: ADME, organism-based
[2] = Drug uptake in human adult CSF at 75 mg, im up to 8.5 hrs by HPLC; format: ADME, organism-based, Cerebrospinal fluid; parameters: dose 75 mg, route intramuscular
[3] = Cmax in human neonate at 10 mg/kg, iv by HPLC; format: ADME, organism-based; parameters: dose 10 mg/kg, route intravenous; details: in vivo
[4] = Cmin in human neonate serum after 25 hrs by fluorescence polarization immunoassay; format: ADME; details: read-out: Cmin
[5] = Drug uptake in human neonate CSF after 25 hrs by HPLC; format: ADME, organism-based, Cerebrospinal fluid

A Cmax [1] of 35700 ng/mL, a Cmax [2] of under 500 ng/mL and a Cmax [3] of under 200 ng/mL were found for `NCC[C@H](O)C(=O)N[C@@H]1C[C@H](N)[C@@H](O[C@H]2O[C@H](CN)[C@@H](O)[C@H](O)[C@H]2O)[C@H](O)[C@H]1O[C@H]1O[C@H](CO)[C@@H](O)[C@H](N)[C@H]1O` [AMIKACIN] in this work. It also gave a concentration at 25 h [4] of 3800 ng/mL and a Cmax [5] of 1080 ng/mL.
